In patent EP0347459A1, “CEPHALOSPORIN COMPOUNDS OR THEIR SALTS, PROCESS FOR THEIR PREPARATION, AND PHARMACEUTICAL COMPOSITIONS” (TEIJIN LIMITED, priority 1987, dated 1988):
In brackets after ≈: the same amount, converted by molar mass.

Experiments:
Assay type in all cases: cell-based
[1] = system: P.aeruginosa PAD1; assay: In vitro antibacterial activity, agar disc dilution method; settings: Pseudomonas aeruginosa; P.aeruginosa PAD1; Mueller Hinton agar, 10^6/ml, 37°C for 16 hours; read-out: minimum growth inhibitory concentration (MIC)
Protocol: (§1) An in vitro antibacterial activity was measured by an agar disc dilution method.
(§2) Varied test bacteria were cultivated overnight in triptophane-soybroth. A Mueller Hinton agar containing the compound of this invention in varied concentrations was streaked with one platinum loopful of each of the bacteria (number of living cells 10^6/ml).

[2] = system: S.pyogenes Cook; assay: as above; settings: Streptococcus pyogenes; S.pyogenes Cook; Mueller Hinton agar, 10^6/ml, 37°C for 16 hours; read-out: minimum growth inhibitory concentration (MIC)
Protocol: as §1, §2

[3] = system: S.enteritidis G14; assay: as above; settings: Salmonella enterica; S.enteritidis G14; Mueller Hinton agar, 10^6/ml, 37°C for 16 hours; read-out: minimum growth inhibitory concentration (MIC)
Protocol: as §1, §2

[4] = system: P.vulgalis OX-11; assay: as above; settings: P.vulgalis OX-11; Mueller Hinton agar, 10^6/ml, 37°C for 16 hours; read-out: minimum growth inhibitory concentration (MIC)
Protocol: as §1, §2

[5] = system: P.aeruginosa NCTC1049; assay: as above; settings: Pseudomonas aeruginosa; P.aeruginosa NCTC1049; Mueller Hinton agar, 10^6/ml, 37°C for 16 hours; read-out: minimum growth inhibitory concentration (MIC)
Protocol: as §1, §2

[6] = system: S.aureus 209p NIHJ JC1; assay: as above; settings: Staphylococcus aureus; S.aureus 209p NIHJ JC1; Mueller Hinton agar, 10^6/ml, 37°C for 16 hours; read-out: minimum growth inhibitory concentration (MIC)
Protocol: as §1, §2

[7] = system: P.morganii IFO3445; assay: as above; settings: Morganella morganii; P.morganii IFO3445; Mueller Hinton agar, 10^6/ml, 37°C for 16 hours; read-out: minimum growth inhibitory concentration (MIC)
Protocol: as §1, §2

[8] = system: E.cloacae 963; assay: as above; settings: Enterobacter cloacae; E.cloacae 963; Mueller Hinton agar, 10^6/ml, 37°C for 16 hours; read-out: minimum growth inhibitory concentration (MIC)
Protocol: as §1, §2

[9] = system: K.pneumoniae PCI602; assay: as above; settings: Klebsiella pneumoniae; K.pneumoniae PCI602; Mueller Hinton agar, 10^6/ml, 37°C for 16 hours; read-out: minimum growth inhibitory concentration (MIC)
Protocol: as §1, §2

[10] = system: S. aureus Terajima; assay: as above; settings: Staphylococcus aureus; S. aureus Terajima; Mueller Hinton agar, 10^6/ml, 37°C for 16 hours; read-out: minimum growth inhibitory concentration (MIC)
Protocol: as §1, §2

[11] = system: S.marcescens IAM1184; assay: as above; settings: Serratia marcescens; S.marcescens IAM1184; Mueller Hinton agar, 10^6/ml, 37°C for 16 hours; read-out: minimum growth inhibitory concentration (MIC)
Protocol: as §1, §2

[12] = system: P.aeruginosa IFO3445; assay: as above; settings: Pseudomonas aeruginosa; P.aeruginosa IFO3445; Mueller Hinton agar, 10^6/ml, 37°C for 16 hours; read-out: minimum growth inhibitory concentration (MIC)
Protocol: as §1, §2

[13] = system: S.typhi 901; assay: as above; settings: Salmonella enterica, 16 h, read-out: minimum growth inhibitory concentration (MIC)
Protocol: as §1, §2

[14] = system: M.luteus ATCC9341; assay: as above; settings: Micrococcus luteus; M.luteus ATCC9341; Mueller Hinton agar, 10^6/ml, 37°C for 16 hours; read-out: minimum growth inhibitory concentration (MIC)
Protocol: as §1, §2

[15] = system: P.aeruginosa 88; assay: MIC values of 10 kinds of Pseudomonas aeruginosa; settings: Pseudomonas aeruginosa, 16 h; P.aeruginosa 88 (Table II); read-out: MIC values
Protocol: as §1, §2
(§3) MIC values of 10 kinds of Pseudomonas aeruginosa were measured for Compound III, Comparative Example B and CAZ.

[16] = system: P.aeruginosa N-3; assay: MIC values of 10 kinds of Pseudomonas aeruginosa; settings: N3, 16 h, P.aeruginosa N-3 (Table II), read-out: MIC values
Protocol: as §1, §2, §3

[17] = system: P.aeruginosa ATCC27318; assay: MIC values of 10 kinds of Pseudomonas aeruginosa; settings: 16 h, P.aeruginosa ATCC27318 (Table II), read-out: MIC values
Protocol: as §1, §2, §3

[18] = system: P.aeruginosa N-26; assay: MIC values of 10 kinds of Pseudomonas aeruginosa; settings: N26, 16 h, P.aeruginosa N-26 (Table II), read-out: MIC values
Protocol: as §1, §2, §3

[19] = system: P.aeruginosa NO. 97; assay: MIC values of 10 kinds of Pseudomonas aeruginosa; settings: 16 h, P.aeruginosa NO. 97 (Table II), read-out: MIC values
Protocol: as §1, §2, §3

[20] = system: P.aeruginosa 0-11; assay: MIC values of 10 kinds of Pseudomonas aeruginosa; settings: Pseudomonas aeruginosa, 011, 16 h; P.aeruginosa 0-11 (Table II); read-out: MIC values
Protocol: as §1, §2, §3

[21] = system: P.aeruginosa Tid53; assay: MIC values of 10 kinds of Pseudomonas aeruginosa; settings: 16 h, P.aeruginosa Tid53 (Table II), read-out: MIC values
Protocol: as §1, §2, §3

[22] = system: P.aeruginosa N-2; assay: MIC values of 10 kinds of Pseudomonas aeruginosa; settings: N2, 16 h, P.aeruginosa N-2 (Table II), read-out: MIC values
Protocol: as §1, §2, §3

[23] = system: P.aeruginosa 64; assay: MIC values of 10 kinds of Pseudomonas aeruginosa; settings: Pseudomonas aeruginosa, 16 h; P.aeruginosa 64 (Table II); read-out: MIC values
Protocol: as §1, §2, §3

[24] = system: P.aeruginosa ATCC27577; assay: MIC values of 10 kinds of Pseudomonas aeruginosa; settings: 16 h, P.aeruginosa ATCC27577 (Table II), read-out: MIC values
Protocol: as §1, §2, §3

Row | Compound | MIC [1] | MIC [2] | MIC [3] | MIC [4] | MIC [5] | MIC [6] | MIC [7] | MIC [8] | MIC [9] | MIC [10] | MIC [11] | MIC [12] | MIC [13] | MIC [14] | MIC [15] | MIC [16] | MIC [17] | MIC [18] | MIC [19] | MIC [20] | other results
1 | CON=C(C(=O)NC1C(=O)N2C(C(=O)[O-])=C(C[n+]3ccc4cc(O)c(O)cc4c3)CSC12)c1nsc(N)n1 [Compound I, (6R,7R)-7-[(Z)-2-(5-amino-1,2,4-thiadiazol-3-yl-2-methoxyimino)acetamide]-3-(6,7-dihydroxy-2-isoquinolinium)methyl-3-cephem-4-carboxylate] | 12.5 µg/mL (≈ 22.4 µM) | 0.05 µg/mL (≈ 0.0897 µM) | 0.005 µg/mL (≈ 0.00897 µM) | 0.005 µg/mL (≈ 0.00897 µM) | 0.2 µg/mL (≈ 0.359 µM) | 1.6 µg/mL (≈ 2.87 µM) | 0.005 µg/mL (≈ 0.00897 µM) | 0.005 µg/mL (≈ 0.00897 µM) | 0.005 µg/mL (≈ 0.00897 µM) | 1.6 µg/mL (≈ 2.87 µM) | 0.005 µg/mL (≈ 0.00897 µM) | 12.5 µg/mL (≈ 22.4 µM) | 0.005 µg/mL (≈ 0.00897 µM) | 0.1 µg/mL (≈ 0.179 µM) |  |  |  |  |  |  | 
2 | CON=C(C(=O)NC1C(=O)N2C(C(=O)[O-])=C(C[n+]3ccc4cc(O)c(O)cc4c3)CSC12)c1csc(N)n1 [Comparative Compound A, (6R,7R)-7-[(Z)-2-(2-amino-l,3-thiazol-4-yl)-2-methoxyiminolacetamide-3-(6,7-dihydroxy-2-isoquinolinium)methyl-3-cephem-4-carboxylate, reference compound] | 50 µg/mL (≈ 89.8 µM) | 0.2 µg/mL (≈ 0.359 µM) | 0.005 µg/mL (≈ 0.00898 µM) | 0.005 µg/mL (≈ 0.00898 µM) | 0.2 µg/mL (≈ 0.359 µM) | 0.4 µg/mL (≈ 0.719 µM) | 0.1 µg/mL (≈ 0.18 µM) | 0.025 µg/mL (≈ 0.0449 µM) | 0.005 µg/mL (≈ 0.00898 µM) | 0.4 µg/mL (≈ 0.719 µM) | 0.005 µg/mL (≈ 0.00898 µM) | 50 µg/mL (≈ 89.8 µM) | 0.005 µg/mL (≈ 0.00898 µM) | 0.4 µg/mL (≈ 0.719 µM) |  |  |  |  |  |  | 
3 | CC(C)(ON=C(C(=O)NC1C(=O)N2C(C(=O)[O-])=C(C[n+]3ccc4cc(O)c(O)cc4c3)CSC12)c1nsc(N)n1)C(=O)O [Compound III, (6R,7R)-7-[(Z)-2-(5-amino-1,2,4-thiadiazol-3-yl)-2-(2-carboxypropyl-2-yloxyimino)acetamide]-3-(6,7-dihydroxy-2-isoquinolinium)methyl-3-ce phem-4-carboxylate] | 0.0125 µg/mL (≈ 0.0199 µM) | 1.6 µg/mL (≈ 2.54 µM) | 0.005 µg/mL (≈ 0.00794 µM) | 0.005 µg/mL (≈ 0.00794 µM) | 0.005 µg/mL (≈ 0.00794 µM) | 12.5 µg/mL (≈ 19.9 µM) | 0.005 µg/mL (≈ 0.00794 µM) | 0.005 µg/mL (≈ 0.00794 µM) | 0.005 µg/mL (≈ 0.00794 µM) | 3.1 µg/mL (≈ 4.92 µM) | 0.005 µg/mL (≈ 0.00794 µM) | 0.0125 µg/mL (≈ 0.0199 µM) | 0.005 µg/mL (≈ 0.00794 µM) | 3.1 µg/mL (≈ 4.92 µM) | 0.0125 µg/mL (≈ 0.0199 µM) | 0.0125 µg/mL (≈ 0.0199 µM) | 0.0125 µg/mL (≈ 0.0199 µM) | 0.0125 µg/mL (≈ 0.0199 µM) | 0.005 µg/mL (≈ 0.00794 µM) | 0.005 µg/mL (≈ 0.00794 µM) | MIC [21]: 0.005 µg/mL (≈ 0.00794 µM); MIC [22]: 0.025 µg/mL (≈ 0.0397 µM); MIC [23]: 0.0125 µg/mL (≈ 0.0199 µM); MIC [24]: 0.005 µg/mL (≈ 0.00794 µM)
4 | Nc1nc(C(=NOC(C(=O)O)c2ccccc2)C(=O)NC2C(=O)N3C(C(=O)[O-])=C(C[n+]4ccc5cc(O)c(O)cc5c4)CSC23)ns1 [Compound IV, (6R,7R)-7-[(Z)-2-(5-amino-l,2,4-thiadiazol-3-yl-2-[(alpha-carboxybenzyl)oxyimino]acetamide-3-(6,7-dihydroxy-2-isoquinolinium)methyl-3-cephem-4-carboxylate] | 0.025 µg/mL (≈ 0.0369 µM) | 0.8 µg/mL (≈ 1.18 µM) | 0.005 µg/mL (≈ 0.00738 µM) | 0.005 µg/mL (≈ 0.00738 µM) | 0.0125 µg/mL (≈ 0.0184 µM) | 3.2 µg/mL (≈ 4.72 µM) | 0.005 µg/mL (≈ 0.00738 µM) | 0.005 µg/mL (≈ 0.00738 µM) | 0.005 µg/mL (≈ 0.00738 µM) | 3.2 µg/mL (≈ 4.72 µM) | 0.005 µg/mL (≈ 0.00738 µM) | 0.025 µg/mL (≈ 0.0369 µM) | 0.005 µg/mL (≈ 0.00738 µM) | 0.8 µg/mL (≈ 1.18 µM) |  |  |  |  |  |  | 
5 | CC(C)(ON=C(C(=O)NC1C(=O)N2C(C(=O)[O-])=C(C[n+]3ccc4cc(O)c(O)cc4c3)CSC12)c1csc(N)n1)C(=O)O [Comparative Compound B, (6R,7R)-7-[(Z)-2-(2-amino-l,3-thiazol-4-yl)-2-(2-carboxypropyl-2-yloxyimino)acetamide]-3-(6,7-dihydroxy-2-isoquinolinium)methyl-3-cephem-4-carboxylate, reference compound] | 0.025 µg/mL (≈ 0.0398 µM) | 1.6 µg/mL (≈ 2.55 µM) | 0.005 µg/mL (≈ 0.00795 µM) | 0.005 µg/mL (≈ 0.00795 µM) | 0.0125 µg/mL (≈ 0.0199 µM) | 12.5 µg/mL (≈ 19.9 µM) | 0.005 µg/mL (≈ 0.00795 µM) | 0.005 µg/mL (≈ 0.00795 µM) | 0.005 µg/mL (≈ 0.00795 µM) | 3.1 µg/mL (≈ 4.93 µM) | 0.005 µg/mL (≈ 0.00795 µM) | 0.025 µg/mL (≈ 0.0398 µM) | 0.005 µg/mL (≈ 0.00795 µM) | 3.1 µg/mL (≈ 4.93 µM) | 0.025 µg/mL (≈ 0.0398 µM) | 0.05 µg/mL (≈ 0.0795 µM) | 0.05 µg/mL (≈ 0.0795 µM) | 0.1 µg/mL (≈ 0.159 µM) | 0.025 µg/mL (≈ 0.0398 µM) | 0.05 µg/mL (≈ 0.0795 µM) | MIC [21]: 0.05 µg/mL (≈ 0.0795 µM); MIC [22]: 0.05 µg/mL (≈ 0.0795 µM); MIC [23]: 0.05 µg/mL (≈ 0.0795 µM); MIC [24]: 0.005 µg/mL (≈ 0.00795 µM)
6 | Nc1nc(C(=NOCC(=O)O)C(=O)NC2C(=O)N3C(C(=O)[O-])=C(C[n+]4ccc5cc(O)c(O)cc5c4)CSC23)ns1 [Compound II, (6R,7R)-7-[(Z)-5-amino-1,2,4-thiadiazol-3-yl)-2-(carboxymethoxyimino)acetamidel-3-(6,7-dihydroxy-2-isoquinolinium)methyl-3-cephem-4-carboxylate] | 0.025 µg/mL (≈ 0.0416 µM) | 0.2 µg/mL (≈ 0.332 µM) | 0.005 µg/mL (≈ 0.00831 µM) | 0.005 µg/mL (≈ 0.00831 µM) | 0.0125 µg/mL (≈ 0.0208 µM) | 12.5 µg/mL (≈ 20.8 µM) | 0.005 µg/mL (≈ 0.00831 µM) | 0.005 µg/mL (≈ 0.00831 µM) | 0.005 µg/mL (≈ 0.00831 µM) | 3.1 µg/mL (≈ 5.15 µM) | 0.005 µg/mL (≈ 0.00831 µM) | 0.05 µg/mL (≈ 0.0831 µM) | 0.005 µg/mL (≈ 0.00831 µM) | 1.6 µg/mL (≈ 2.66 µM) |  |  |  |  |  |  | 
